According to patent publication US20250236614A1, “BICYCLIC TETRAHYDROAZEPINE DERIVATIVES” (Hoffmann-La Roche Inc., priority 2022, published 2025):

Legend:
[1] = system: primary human T-cells; assay: T-cell proliferation assay (CellTiter-Glo); type: cell-based; settings: isomer A
How it was run: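 Expanded primary human T-cells (100k/well) on CD3-antibody-coated or PBS-only plates, 5–6-point doses from 20 or 10 μM top, 0.2% DMSO; proliferation by CellTiter-Glo ATP luminescence after 5 days. Normalized to DMSO (0%) and 20 μM reference compound (100%); EC50 and Emax from sigmoidal fit for CD3 conditions.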

[2] = target: T1, hDGKalpha(1-735)-N-His (DGKA) (Homo sapiens, UniProt P23743); assay: In vitro DGK inhibition assay (ADP-Glo, in house), DGK alpha; type: biochemical; settings: isomer A; 4 nM DGK α, 25 μM ATP, 125 μM DLG in liposomes, 1 hour reaction; read-out: DGKalpha ADP Glo assay IC50
T1 construct: hDGKalpha(1-735)-N-His; His (N)
How it was run: (§1)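 Sf21-expressed full-length His-tagged enzymes (DGKA 4 nM, DGKZ 2 nM) phosphorylated 125 μM DLG in PS/PC liposomes with ATP at 25 μM (DGKA) or 50 μM (DGKZ). After 1 h, ADP was measured by ADP-Glo luminescence. Compounds: 11-point 1:3 dilutions from 10 mM top concentration.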

[3] = target: T2, hDGKzeta(1-928)-N-His (DGKZ) (Homo sapiens, UniProt Q13574); assay: In vitro DGK inhibition assay (ADP-Glo, in house), DGK zeta; type: biochemical; settings: isomer A; 2 nM DGK ζ, 50 μM ATP, 125 μM DLG in liposomes, 1 hour reaction; read-out: DGKzeta ADP Glo assay IC50
T2 construct: hDGKzeta(1-928)-N-His; His (N)
How it was run: as §1

T1 sequence (P23743 whole entry): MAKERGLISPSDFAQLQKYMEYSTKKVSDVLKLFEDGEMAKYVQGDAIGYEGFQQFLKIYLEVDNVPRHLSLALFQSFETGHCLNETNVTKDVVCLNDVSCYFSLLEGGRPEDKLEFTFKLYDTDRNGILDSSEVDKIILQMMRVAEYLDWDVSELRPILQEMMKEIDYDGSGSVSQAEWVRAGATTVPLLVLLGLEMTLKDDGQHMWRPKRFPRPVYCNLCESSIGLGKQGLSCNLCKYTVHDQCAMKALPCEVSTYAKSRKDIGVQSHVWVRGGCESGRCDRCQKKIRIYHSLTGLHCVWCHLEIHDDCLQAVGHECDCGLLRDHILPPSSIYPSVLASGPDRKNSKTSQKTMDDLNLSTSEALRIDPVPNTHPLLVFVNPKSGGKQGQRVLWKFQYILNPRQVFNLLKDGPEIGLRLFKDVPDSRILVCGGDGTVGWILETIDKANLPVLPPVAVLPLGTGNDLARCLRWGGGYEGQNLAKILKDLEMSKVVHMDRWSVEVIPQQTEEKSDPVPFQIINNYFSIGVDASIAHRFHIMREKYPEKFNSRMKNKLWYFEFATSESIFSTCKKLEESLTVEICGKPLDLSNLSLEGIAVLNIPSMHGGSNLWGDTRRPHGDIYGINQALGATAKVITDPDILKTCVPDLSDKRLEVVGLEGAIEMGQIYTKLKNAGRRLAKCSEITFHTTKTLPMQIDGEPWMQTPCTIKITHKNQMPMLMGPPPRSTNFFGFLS
T2 sequence (Q13574 whole entry): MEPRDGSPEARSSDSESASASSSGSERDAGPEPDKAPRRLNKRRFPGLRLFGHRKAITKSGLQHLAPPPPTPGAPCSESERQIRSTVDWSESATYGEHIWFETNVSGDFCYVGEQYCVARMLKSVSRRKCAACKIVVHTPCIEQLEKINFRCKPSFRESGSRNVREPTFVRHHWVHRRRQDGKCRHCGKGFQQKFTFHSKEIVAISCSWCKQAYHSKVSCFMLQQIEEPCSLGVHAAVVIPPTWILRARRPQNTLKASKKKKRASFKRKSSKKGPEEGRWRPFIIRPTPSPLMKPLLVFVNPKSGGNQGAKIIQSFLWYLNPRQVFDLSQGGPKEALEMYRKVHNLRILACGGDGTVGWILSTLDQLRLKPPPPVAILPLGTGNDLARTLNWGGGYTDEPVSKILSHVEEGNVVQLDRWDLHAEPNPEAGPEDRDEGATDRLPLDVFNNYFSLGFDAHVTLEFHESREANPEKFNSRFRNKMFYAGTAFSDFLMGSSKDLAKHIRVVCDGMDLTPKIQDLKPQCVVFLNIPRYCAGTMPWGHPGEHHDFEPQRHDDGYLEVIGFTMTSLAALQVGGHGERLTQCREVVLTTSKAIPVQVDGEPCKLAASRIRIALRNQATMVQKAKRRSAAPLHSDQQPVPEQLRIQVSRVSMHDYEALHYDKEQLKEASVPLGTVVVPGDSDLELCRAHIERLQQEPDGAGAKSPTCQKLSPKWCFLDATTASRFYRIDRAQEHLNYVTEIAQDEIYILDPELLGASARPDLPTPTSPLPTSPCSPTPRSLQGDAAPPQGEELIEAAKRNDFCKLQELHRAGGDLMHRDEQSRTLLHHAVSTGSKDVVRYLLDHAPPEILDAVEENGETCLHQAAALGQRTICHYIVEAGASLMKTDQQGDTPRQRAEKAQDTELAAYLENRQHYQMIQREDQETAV

(3S)-3-amino-5,5,7-trifluoro-8-(5-morpholino-1,3,4-oxadiazol-2-yl)-1-[[4-(trifluoromethoxy)phenyl]methyl]-3,4-dihydro-1-benzazepin-2-one and (3R)-3-amino-5,5,7-trifluoro-8-(5-morpholino-1,3,4-oxadiazol-2-yl)-1-[[4-(trifluoromethoxy)phenyl]methyl]-3,4-dihydro-1-benzazepin-2-one [Example 3]
EC50 ([1]; CD3 antibody-stimulated T-cells, CellTiter-Glo after 5 days, read-out: Tcell Proliferation CD3 EC50): 0.549 µM | Emax proliferation (% activation) ([1]; CD3 condition, 5 days, 20 μM reference compound A1 = 100%, DMSO neutral control): 57 % activation | IC50 [2]: 1.57 µM | IC50 [3]: 2.89 µM
